Source: patent US20250108038A1 (priority 2023, published 2025)
Where “and” joins values, the source holds several entries; their conditions need not be identical. Equal values may be shown once.

Test system: Long Evans rats
Test: Behavioral satiety sequence (BSS)
Format: in vivo, Long Evans rat
Description: The Behavioural Satiety Sequence (BSS) is a technique used to evaluate physiological satiety. It is based on the expression of a sequence of behaviors including eating, grooming, locomotor activity, followed by resting, which are typically observed in rodents post-ingestion (Halford et al, 1998, Pharmacology Biochemistry and Behaviour. 61(2): 159-168). The BSS is a widely used model for determining the effects of novel pharmaceuticals on food intake and measures of satiety in rodents (Oliveira et al, 2011, Revista de Nutrição. 24(4) 619-628), and to discriminate the cause of reduced food intake following pharmacological manipulation. For example, treatments that may reduce food intake by non-specific mechanisms, such as immobility, malaise, and taste adulteration, will disrupt this sequence (Halford et al, 1998, Pharmacology Biochemistry and Behaviour. 61(2): 159-168).
Specifically, 12 male Long-Evans rats were food-deprived for 22 h with a 2 h feeding period each day. Rats were trained to consume daily food during the 2 h period over 25 days. The testing phase was initiated once the rats consistently consumed 16-18 g of food per day with ≤10% variance in amount of feed consumed. Feeding took place in designated individual boxes in a quiet room separate from the housing room. Continuous remote monitoring via video camera during feeding was used to assess the BSS. Food consumption was measured by weighing the total available food before and after the 2 h feeding window, correcting for spillage. Lorcaserin (1 mg/kg) was included as a reference control (Higgins et al, 2011, Neuropsychopharmacology. 37(5): 1177-1191). Subjects were tested using a repeated-measures, Latin square design with 2-3 days wash-out between treatment cycles.
On scheduled test days, animals were monitored remotely via video camera during the feeding access period. The occurrence of four mutually exclusive behaviors (eating/drinking, grooming, active, rest) were individually scored. Over the 2 h feeding period, behaviors were assessed every 30 seconds. Scores were compiled into 23 5 min timebins (timebin 24 was removed due to early removal of animals) and the frequency of each behavior within each timebin was calculated to determine a temporal frequency of each measure (Rodgers et al, 2010, Pharmacology Biochemistry and Behaviour. 97: 3-14). Percentage time was plotted for each behavioral sequence in each timebin to compare between treatment groups (Higgins et al, 2011, Neuropsychopharmacology. 37(5): 1177-1191).

[1] = Compound I-19 0.3 mg/kg, raw score per animal (LT-1 to LT-12)
[2] = Compound I-19 1 mg/kg i.p., AVG of the group
[3] = Compound I-19 1 mg/kg i.p., raw score per animal
[4] = Compound I-19 1 mg/kg, AVG of 12 animals

Clc1ccc(C2(OCC3OCCO3)c3ccccc3C3=NCCN32)cc1 (stereo not drawn) [Compound I-19]
BSS scoring G (grooming), Time Bin 22 (105-110 TOTAL) [1]: 0 (11×) and 1
BSS scoring G (grooming), Time Bin 23 (110-115 TOTAL) [1]: 1 (4×) and 0 (7×) and 2
BSS scoring G (grooming), Time Bin 24 (115-120 TOTAL) [1]: 0 (7×) and 1 (5×)
BSS scoring R (resting), Time Bin 19 (90-95 TOTAL) [1]: 1 (5×) and 0 (5×) and 2 and 6
BSS scoring R (resting), Time Bin 20 (95-100 TOTAL) [1]: 0 (6×) and 1 (3×) and 4 and 2 (2×)
BSS scoring R (resting), Time Bin 21 (100-105 TOTAL) [1]: 0 (5×) and 1 (2×) and 3 (3×) and 2 and 10
BSS scoring R (resting), Time Bin 22 (105-110 TOTAL) [1]: 0 (6×) and 4 and 10 and 6 and 1 and 2 (2×)
BSS scoring R (resting), Time Bin 23 (110-115 TOTAL) [1]: 0 (7×) and 3 and 6 (2×) and 2 (2×)
BSS scoring R (resting), Time Bin 24 (115-120 TOTAL) [1]: 0 (7×) and 10 and 6 and 7 and 1 (2×)
BSS scoring A (active), Time Bin 1 (0-5 TOTAL), AVG [2]: 0.11
BSS scoring A (active), Time Bin 2 (5-10 TOTAL), AVG [2]: 0.04
BSS scoring A (active), Time Bin 3 (10-15 TOTAL), AVG [2]: 0.07
BSS scoring A (active), Time Bin 4 (15-20 TOTAL), AVG [2]: 0.02
BSS scoring A (active), Time Bin 5 (20-25 TOTAL), AVG [2]: 0.10
BSS scoring A (active), Time Bin 6 (25-30 TOTAL), AVG [2]: 0.17
BSS scoring E (eating/drinking), Time Bin 1 (0-5 TOTAL), AVG [2]: 0.88
BSS scoring E (eating/drinking), Time Bin 2 (5-10 TOTAL), AVG [2]: 0.88
BSS scoring E (eating/drinking), Time Bin 3 (10-15 TOTAL), AVG [2]: 0.88
BSS scoring E (eating/drinking), Time Bin 4 (15-20 TOTAL), AVG [2]: 0.93
BSS scoring E (eating/drinking), Time Bin 5 (20-25 TOTAL), AVG [2]: 0.83
BSS scoring E (eating/drinking), Time Bin 6 (25-30 TOTAL), AVG [2]: 0.80
BSS scoring G (grooming), Time Bin 1 (0-5 TOTAL), AVG [2]: 0.02
BSS scoring G (grooming), Time Bin 2 (5-10 TOTAL), AVG [2]: 0.07
BSS scoring G (grooming), Time Bin 3 (10-15 TOTAL), AVG [2]: 0.03
BSS scoring G (grooming), Time Bin 4 (15-20 TOTAL), AVG [2]: 0.03
BSS scoring G (grooming), Time Bin 5 (20-25 TOTAL), AVG [2]: 0.03
BSS scoring G (grooming), Time Bin 6 (25-30 TOTAL), AVG [2]: 0.01
BSS scoring R (resting), Time Bin 1 (0-5 TOTAL), AVG [2]: 0.00
BSS scoring R (resting), Time Bin 2 (5-10 TOTAL), AVG [2]: 0.01
BSS scoring R (resting), Time Bin 3 (10-15 TOTAL), AVG [2]: 0.02
BSS scoring R (resting), Time Bin 4 (15-20 TOTAL), AVG [2]: 0.03
BSS scoring R (resting), Time Bin 5 (20-25 TOTAL), AVG [2]: 0.03
BSS scoring R (resting), Time Bin 6 (25-30 TOTAL), AVG [2]: 0.03
BSS scoring A (active), Time Bin 1 (0-5 TOTAL) [3]: 0 (3×) and 1 (5×) and 2 (4×)
BSS scoring A (active), Time Bin 2 (5-10 TOTAL) [3]: 0 (8×) and 2 and 1 (3×)
BSS scoring A (active), Time Bin 3 (10-15 TOTAL) [3]: 0 (4×) and 1 (8×)
BSS scoring A (active), Time Bin 4 (15-20 TOTAL) [3]: 0 (10×) and 1 (2×)
BSS scoring A (active), Time Bin 5 (20-25 TOTAL) [3]: 2 (2×) and 0 (5×) and 1 (4×) and 4
BSS scoring A (active), Time Bin 6 (25-30 TOTAL) [3]: 2 (3×) and 0 (5×) and 7 and 3 (2×) and 1
BSS scoring E (eating/drinking), Time Bin 1 (0-5 TOTAL) [3]: 10 (3×) and 9 (4×) and 7 and 8 (4×)
BSS scoring E (eating/drinking), Time Bin 2 (5-10 TOTAL) [3]: 10 (4×) and 8 (4×) and 9 (3×) and 7
BSS scoring E (eating/drinking), Time Bin 3 (10-15 TOTAL) [3]: 10 (3×) and 9 (5×) and 8 (3×) and 7
BSS scoring E (eating/drinking), Time Bin 4 (15-20 TOTAL) [3]: 10 (5×) and 9 (6×) and 8
BSS scoring E (eating/drinking), Time Bin 5 (20-25 TOTAL) [3]: 7 (2×) and 10 (3×) and 9 (4×) and 8 (2×) and 4
BSS scoring E (eating/drinking), Time Bin 6 (25-30 TOTAL) [3]: 6 and 10 (5×) and 1 and 7 (2×) and 9 and 8 (2×)
BSS scoring G (grooming), Time Bin 1 (0-5 TOTAL) [3]: 0 (10×) and 1 (2×)
BSS scoring G (grooming), Time Bin 2 (5-10 TOTAL) [3]: 0 (6×) and 2 (2×) and 1 (4×)
BSS scoring G (grooming), Time Bin 3 (10-15 TOTAL) [3]: 0 (9×) and 1 (2×) and 2
BSS scoring G (grooming), Time Bin 4 (15-20 TOTAL) [3]: 0 (9×) and 1 (3×)
BSS scoring G (grooming), Time Bin 5 (20-25 TOTAL) [3]: 1 (4×) and 0 (8×)
BSS scoring G (grooming), Time Bin 6 (25-30 TOTAL) [3]: 0 (11×) and 1
BSS scoring R (resting), Time Bin 1 (0-5 TOTAL) [3]: 0
BSS scoring R (resting), Time Bin 2 (5-10 TOTAL) [3]: 0 (11×) and 1
BSS scoring R (resting), Time Bin 3 (10-15 TOTAL) [3]: 0 (10×) and 1 (2×)
BSS scoring R (resting), Time Bin 4 (15-20 TOTAL) [3]: 0 (9×) and 1 (3×)
BSS scoring R (resting), Time Bin 5 (20-25 TOTAL) [3]: 0 (9×) and 1 (2×) and 2
BSS scoring R (resting), Time Bin 6 (25-30 TOTAL) [3]: 2 and 0 (10×) and 1
BSS scoring A (active), Time Bin 13 (60-65 TOTAL), AVG [4]: 0.09
BSS scoring A (active), Time Bin 14 (65-70 TOTAL), AVG [4]: 0.13
BSS scoring A (active), Time Bin 15 (70-75 TOTAL), AVG [4]: 0.17
BSS scoring A (active), Time Bin 16 (75-80 TOTAL), AVG [4]: 0.16
BSS scoring A (active), Time Bin 17 (80-85 TOTAL), AVG [4]: 0.18
BSS scoring A (active), Time Bin 18 (85-90 TOTAL), AVG [4]: 0.12
BSS scoring E (eating/drinking), Time Bin 13 (60-65 TOTAL), AVG [4]: 0.73
BSS scoring E (eating/drinking), Time Bin 14 (65-70 TOTAL), AVG [4]: 0.73
BSS scoring E (eating/drinking), Time Bin 15 (70-75 TOTAL), AVG [4]: 0.65
BSS scoring E (eating/drinking), Time Bin 16 (75-80 TOTAL), AVG [4]: 0.64
BSS scoring E (eating/drinking), Time Bin 17 (80-85 TOTAL), AVG [4]: 0.68
BSS scoring E (eating/drinking), Time Bin 18 (85-90 TOTAL), AVG [4]: 0.54
BSS scoring G (grooming), Time Bin 13 (60-65 TOTAL), AVG [4]: 0.06
BSS scoring G (grooming), Time Bin 14 (65-70 TOTAL), AVG [4]: 0.03
BSS scoring G (grooming), Time Bin 15 (70-75 TOTAL), AVG [4]: 0.05
BSS scoring G (grooming), Time Bin 16 (75-80 TOTAL), AVG [4]: 0.03
BSS scoring G (grooming), Time Bin 17 (80-85 TOTAL), AVG [4]: 0.01
BSS scoring G (grooming), Time Bin 18 (85-90 TOTAL), AVG [4]: 0.03
